Test results reported in patent US9738932B2, “Biomarkers for cardiovascular side-effects induced by cox-2 inhibitory compounds” (FIRALIS SAS, priority 2005, dated 2017).

Test system: CXCL10 (IP10)
Experiment: ELISA of CXCL10 (IP10) protein in monkey serum and plasma
Format: in vivo, cynomolgus monkey (Macaca fascicularis)
Settings: monkey #A60055
Text: FIG. 6. ELISA confirmation of CXCL10 (IP10) protein level in monkey serum samples.
These peripheral biomarkers might allow safe use of cox-2 inhibitory compounds in clinics and selection of cox-2 inhibitory follow-up compounds without cardiovascular toxicity.

In the case of CS(=O)(=O)c1ccc(C2=C(c3ccccc3)C(=O)OC2)cc1 [Vioxx®, rofecoxib], the “CXCL10 chemokine protein expression by ELISA” value is reported as “Increased expression”.
